# Patent US20240218022A1, “ANTI-VISTA MACROCYCLIC PEPTIDES AND COMPOSITIONS” (BRISTOL-MYERS SQUIBB COMPANY, priority 2022, published 2024)
# Starred links: 1 amine or outer side, 2 acyl side, 3 side chain; linkers in the order of their positions; H or OH if unused. Positions of bridges follow the written chain, without caps; N, C: chain ends. Non-standard residues stand in square brackets, D forms with d. Residues, ends and D or L forms follow the SMILES beside them. γGlu = O=C(O)[C@H](CCC(=O)[*:2])N[*:1]; NMeL = CN[C@@H](CC(C)C)C(=O)O; Ahp(2) = CCCCC[C@H](N)C(=O)O; NMeNle = CCCC[C@H](NC)C(=O)O; Tle = CC(C)(C)[C@H](N)C(=O)O; NMeS = CN[C@@H](CO)C(=O)O; NHexGly = CCCCCCNCC(=O)O; Aun = NCCCCCCCCCCC(=O)O; AEEA = NCCOCCOCC(=O)O
# Biological target: T1, mouse VISTA (mVISTA) (Mus musculus, UniProt Q9D659)
# T1 construct: expressed in transfected cells; host or cells: Human embryonic kidney 293T cells
# T1 sequence (Q9D659 33-308): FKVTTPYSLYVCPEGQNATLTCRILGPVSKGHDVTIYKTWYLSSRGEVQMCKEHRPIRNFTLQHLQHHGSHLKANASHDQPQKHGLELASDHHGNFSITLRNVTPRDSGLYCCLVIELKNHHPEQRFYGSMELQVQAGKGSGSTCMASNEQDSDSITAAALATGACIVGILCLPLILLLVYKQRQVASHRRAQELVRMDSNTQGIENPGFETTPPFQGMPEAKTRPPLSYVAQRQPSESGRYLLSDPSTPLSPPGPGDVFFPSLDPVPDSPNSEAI
# Test: Cell-Based Binding High-Content Assay For mVISTA (HC CBA mVISTA)
# Conditions: read-out: HC CBA mVISTA IC50
# Procedure, shortened: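 293T cells expressing mouse VISTA, with compounds added either after seeding ("no wash") or before seeding and then washed out after 1 h. Biotinylated peptide 2 nM for 30 min at room temperature, then detection with Alexa 647–streptavidin. After fixation with Hoechst stain, plates were high-content imaged; IC50 from four-parameter logistic fit.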
row,IC50,SMILES
1,24.7 nM,CCCCCCN1CC(=O)N[C@@H](Cc2ccc(O)cc2)C(=O)N[C@@H](CC(C)C)C(=O)N[C@@H](CC(N)=O)C(=O)N[C@@H](CCCNC(=N)N)C(=O)N(C)[C@@H](CO)C(=O)N[C@@H](CCCCC)C(=O)N2CCC[C@H]2C(=O)N[C@@H](C(C)(C)C)C(=O)N[C@@H](CC(=O)O)C(=O)N[C@H](C(=O)NCCOCCOCC(=O)N[C@@H](CCC(=O)NCCOCCOCC(=O)NCCCCCCCCCCC(=O)O)C(=O)O)CSCC(=O)N[C@@H](Cc2ccccc2)C(=O)N[C@@H](Cc2c[nH]c3ccccc23)C(=O)N[C@@H](CC(=O)O)C1=O [compound 2264] ({CH2CO}-FWD[NHexGly]YLNR[NMeS][Ahp(2)]P[Tle]DC[AEEA][γGlu][AEEA][Aun]-OH; thioether N-14)
2,17.8 nM,CCCCCCN1CC(=O)N[C@@H](Cc2ccc(O)cc2)C(=O)N[C@@H](CC(C)C)C(=O)N[C@@H](CC(N)=O)C(=O)N[C@@H](CCCNC(=N)N)C(=O)N(C)[C@@H](CCCC)C(=O)N[C@@H](CCCCC)C(=O)N2CCC[C@H]2C(=O)N[C@@H](C(C)(C)C)C(=O)N[C@@H](CC(=O)O)C(=O)N[C@H](C(=O)NCCOCCOCC(=O)N[C@@H](CCC(=O)NCCOCCOCC(=O)NCCCCCCCCCCC(=O)O)C(=O)O)CSCC(=O)N[C@@H](Cc2ccccc2)C(=O)N[C@@H](Cc2c[nH]c3ccccc23)C(=O)N[C@@H](CC(=O)O)C1=O [compound 2265] ({CH2CO}-FWD[NHexGly]YLNR[NMeNle][Ahp(2)]P[Tle]DC[AEEA][γGlu][AEEA][Aun]-OH; thioether N-14)

# Further lines, the compound ahead of its results:
row,SMILES,IC50
1,CCCCCCN1CC(=O)N[C@@H](Cc2ccc(O)cc2)C(=O)N[C@@H](CC(C)C)C(=O)N[C@@H](CC(N)=O)C(=O)N[C@@H](CCCNC(=N)N)C(=O)N(C)[C@@H](CCCC)C(=O)N[C@@H](CCCCC)C(=O)N2CCC[C@H]2C(=O)N[C@@H](C(C)(C)C)C(=O)N[C@@H](CC(=O)O)C(=O)N[C@H](C(=O)NCCOCCOCC(=O)N[C@@H](CCC(=O)NCCOCCOCC(=O)NCCCCCCCCCCC(=O)O)C(=O)O)CSCC(=O)N[C@@H](Cc2ccccc2)C(=O)N[C@@H](Cc2ccc(O)cc2)C(=O)N[C@@H](CC(=O)O)C1=O [compound 2261] ({CH2CO}-FYD[NHexGly]YLNR[NMeNle][Ahp(2)]P[Tle]DC[AEEA][γGlu][AEEA][Aun]-OH; thioether N-14),23.8 nM
2,CCCCCCN1CC(=O)N[C@@H](Cc2ccc(O)cc2)C(=O)N[C@@H](CC(C)C)C(=O)N[C@@H](CC(N)=O)C(=O)N[C@@H](CCCNC(=N)N)C(=O)N(C)[C@@H](CO)C(=O)N[C@@H](CCCCC)C(=O)N2CCC[C@H]2C(=O)N[C@@H](C(C)(C)C)C(=O)N[C@@H](CO)C(=O)N[C@H](C(=O)NCCOCCOCC(=O)N[C@@H](CCC(=O)NCCOCCOCC(=O)NCCCCCCCCCCC(=O)O)C(=O)O)CSCC(=O)N[C@@H](Cc2ccccc2)C(=O)N[C@@H](Cc2ccc(O)cc2)C(=O)N[C@@H](CC(=O)O)C1=O [compound 2262] ({CH2CO}-FYD[NHexGly]YLNR[NMeS][Ahp(2)]P[Tle]SC[AEEA][γGlu][AEEA][Aun]-OH; thioether N-14),39.8 nM
3,CCCCCCN1CC(=O)N[C@@H](Cc2ccc(O)cc2)C(=O)N[C@@H](CC(C)C)C(=O)N[C@@H](CC(N)=O)C(=O)N[C@@H](CCCNC(=N)N)C(=O)N(C)[C@@H](CC(C)C)C(=O)N[C@@H](CCCCC)C(=O)N2CCC[C@H]2C(=O)N[C@@H](C(C)(C)C)C(=O)N[C@@H](CO)C(=O)N[C@H](C(=O)NCCOCCOCC(=O)N[C@@H](CCC(=O)NCCOCCOCC(=O)NCCCCCCCCCCC(=O)O)C(=O)O)CSCC(=O)N[C@@H](Cc2ccccc2)C(=O)N[C@@H](Cc2c[nH]c3ccccc23)C(=O)N[C@@H](CC(=O)O)C1=O [compound 2263] ({CH2CO}-FWD[NHexGly]YLNR[NMeL][Ahp(2)]P[Tle]SC[AEEA][γGlu][AEEA][Aun]-OH; thioether N-14),25.1 nM
